Experimental data as given in patent US5591752A, “Quinoline derivative” (Ube Industries, Ltd., priority 1993, dated 1997).
pKi: −log10 of the molar value.

Each compound was assayed against T1, Leukotriene D4 (LTD4) receptor (Cavia porcellus, UniProt Q2NNR5) (assay: Leukotriene D4 receptor binding test ([3H]ICI-198615 displacement, lung cell membrane fractions)). Conditions: guinea pig lung membranes; [3H]ICI-198615 about 0.2 nM; pKi=-log Ki; read-out: pKi value (converted).
T1 construct: lung cell membrane fractions of guinea pigs were used; from tissue; host or cells: lung membrane fractions of Hartley strain male guinea pigs
T1 sequence (Q2NNR5 1-340): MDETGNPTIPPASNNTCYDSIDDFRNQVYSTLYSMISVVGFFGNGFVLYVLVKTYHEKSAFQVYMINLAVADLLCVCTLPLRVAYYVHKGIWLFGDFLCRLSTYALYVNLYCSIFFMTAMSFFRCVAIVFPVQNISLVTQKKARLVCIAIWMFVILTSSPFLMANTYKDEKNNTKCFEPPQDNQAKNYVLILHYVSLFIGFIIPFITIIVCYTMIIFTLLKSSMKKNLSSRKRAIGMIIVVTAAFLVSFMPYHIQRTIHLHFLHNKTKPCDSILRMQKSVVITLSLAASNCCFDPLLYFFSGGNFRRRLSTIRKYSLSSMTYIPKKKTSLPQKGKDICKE
Method: Leukotriene D4 receptor binding test
<Preparation of receptor samples>
As receptor samples, lung cell membrane fractions of guinea pigs were used. The membrane fractions were prepared according to the method of Ahn et al. (Ahn, H. S. & Barnett, A. (1986) Eur. J. Pharmacol., 127, 153.). After Hartley strain male guinea pigs (body weight: 400 to 500 g, supplied by Nihon SLC Co.) were killed by exsanguination, lungs were extracted and perfused with a physiological saline solution (Otsuka Seiyaku) from lung arteries. The extracted lungs were cut into pieces immediately or after the lungs were stored by freezing them at -80 ° C. A 10-fold amount of a buffer solution (pH 7.4) of 10 mM PIPES, 10 mM MgCl2, 10 mM CaCl2 and 50 mM NaCl was added thereto and the mixtures were made suspensions by a homogenizer (manufactured by Yamato Co., LP-41C Model). After the suspensions were filtered with gauze, the filtrates were centrifuged by an ultracentrifuge (manufactured by Hitachi Co., 70P-72 Model) with 50,000 g for 10 minutes, whereby membrane fractions were deposited. The membrane fractions were washed twice and then suspended in the same buffer solution to obtain receptor samples. Measurement of a protein concentration was conducted by the Lowry method (Lowry, O, H. et al. (1951) J. Biol. Chem., 193,265.) by using bovine serum albumin as a standard protein. The samples prepared (protein amount: 10 to 25 mg/ml) were stored by freezing them at -80° C. and used for experiments.
<Leukotriene D4 receptor binding test>
The leukotriene D4 (LTD4) receptor binding test was conducted according to the method of O'Sullivan et al. (O'Sullivan, B. P. & Mong, S. (1989) Mol. Pharmacol., 35, 795.). The receptor samples were diluted with a buffer solution (pH 7.4) of 10 mM PIPES, 10 mM MgCl2, 10 mM CaCl2 and 50 mM NaCl and 0.42 mg/ml in terms of a protein amount was used. As a labeling compound, [^3 H]ICI-198615 (produced by Du Pont Co., 60 Ci/mmol) which specifically binds to the LTD4 receptor was used. [^3 H]ICI-198615 and a compound to be tested were dissolved in dimethylsulfoxide and a 1/50 amount (2% by volume) of the solution was added to the receptor-diluted solutions, respectively. 500 μl of each reaction mixture was incubated at 25° C. for 40 minutes and then filtered with a glass fiber filter (Whatman, GF/B type) by using a cell harvester (manufactured by Brandel Co., M-30R Model). The filters were washed with 10 ml of an ice-cooled 100 mM NaCl-50 mM phosphate buffer solution (pH 7.5) and subjected to ultrasonic treatment in 9 ml of a liquid scintillator (manufactured by Nacalai Tesque, Co., Clear sol I) for 2 minutes. Thereafter, radioactivity was measured by a liquid scintillation counter (manufactured by Packard Co., 2000 CA Model). In a test of determining a dissociation constant of ICI-198615, 0.1 to 2 nM [^3 H]ICI-198615 and 10 μM non-radioactive ICI-198615 were used. In a test of determining inhibition constants of the respective compounds to be tested, [^3 H]ICI-198615 having a concentration of about 0.2 nM and the compounds each having a concentration of 0.1 pM to 0.1 mM were used.
<Data analysis of receptor binding test>
The dissociation constant (Kd) of ICI-198615 and the binding inhibition constants (Ki) of the respective compounds to be tested were determined by the following numerical formulae (A), (B) and (C).
wherein B: a concentration of a label [3H] which is bound to a receptor, Bmax: a maximum receptor-binding concentration of a label [^3 H], F: a concentration of a label [^3 H] which is not bound to a receptor, [L]: a concentration of a label [^3 H], IC50 : a concentration of a compound which inhibits 50% of binding of a label [^3 H] to a receptor and pKi: a logarithm, of a reciprocal of Ki.

Ki [nM]	SMILES
5.01	CC(SC1c2ccccc2COc2ccc(OCc3ccc4ccccc4n3)cc21)C(=O)O (stereo not drawn) [Example 23, 11-(1-Carboxyethylthio)-2-(quinolin-2-yl)methoxy-6,11-dihydrodibenz[b,e]oxepine]
5.01	O=C(O)COC1c2ccccc2COc2ccc(OCc3ccc4ccc(Cl)cc4n3)cc21 (stereo not drawn) [Example 27, 11-Carboxymethoxy-2-(7-chloroquinolin-2-yl)methoxy-6,11-dihydrobenz[b,e]oxepine]
2	Clc1ccc2ccc(COc3ccc4c(c3)C(OCCc3nn[nH]n3)c3ccccc3CO4)nc2c1 (stereo not drawn) [Example 31, 2-(7-Chloroquinolin-2-yl)methoxy-11-[2-(tetrazol-5-yl)ethoxy]-6,11-dihydrodibenz[b,e]oxepine]
2	O=C(CSC1c2ccccc2COc2ccc(OCc3ccc4ccc(Cl)cc4n3)cc21)NS(=O)(=O)c1ccccc1 (stereo not drawn) [Example 39, 11-[(Phenylsulfonyl)aminocarbonyl]methylthio-2-(7-chloroquinolin-2-yl)methoxy-6,11-dihydrodibenz[b,e]oxepine]
2.51	Cc1ccccc1S(=O)(=O)NC(=O)CCSC1c2ccccc2COc2ccc(OCc3ccc4ccc(Cl)cc4n3)cc21 (stereo not drawn) [Example 40, 2-(7-Chloroquinolin-2-yl)methoxy-11-[2-[(2-methylphenylsulfonyl)aminocarbonyl]ethylthio]-6,11-dihydrodibenz[B,e]oxepine]
1.26	O=C(CSC1c2ccccc2COc2ccc(OCc3ccc4ccccc4n3)cc21)NS(=O)(=O)c1ccccc1 (stereo not drawn) [Example 41, 11-[(Phenylsulfonyl)aminocarbonyl]methylthio-2-(quinolin-2-yl)methoxy-6,11-dihydrodibenz[b,e]oxepine]

Same assay, conditions: pKi value, guinea pig lung membranes; [3H]ICI-198615 about 0.2 nM; pKi=-log Ki

SMILES	pKi
O=C(O)CCSC1c2ccccc2COc2ccc(OCc3ccc4ccc(Cl)cc4n3)cc21 (single isomer, unassigned; (+)) [Example 52, (+)-11-(2-Carboxyethylthio)-2-(7-chloroquinolin-2-yl)methoxy-6,11-dihydrodibenz[b,e]oxepine]	9.50
O=C(O)CCSC1c2ccccc2COc2ccc(OCc3ccc4cc(F)c(Cl)cc4n3)cc21 (single isomer, unassigned; (-)) [Example 51, (-)-11-(2-Carboxyethylthio)-2-(7-chloro-6-fluoroquinolin-2-yl)methoxy-6,11-dihydrodibenz[b,e]oxepine]	8.90
O=C(O)CCSC1c2ccccc2COc2ccc(OCc3ccc4ccc(Cl)cc4n3)cc21 (single isomer, unassigned; (-)) [Example 53, (-)-11-(2-Carboxyethylthio)-2-(7-chloroquinolin-2-yl)-methoxy-6,11-dihydrodibenz[b,e]oxepine]	8.40
O=C(O)CCSC1c2ccccc2COc2ccc(OCc3ccc4cc(Cl)ccc4n3)cc21 (stereo not drawn) [Example 5, 11-(2-Carboxyethylthio)-2-(6-chloroquinolin-2-yl)methoxy-6,11-dihydrodibenz[b,e]oxepine]	8.50
Cc1cccc2c1C(SCCC(=O)O)c1cc(OCc3ccc4ccc(Cl)cc4n3)ccc1OC2 (stereo not drawn) [Example 12, 11-(2-Carboxyethylthio)-2-(7-chloroquinolin-2-yl)methoxy-10-methyl-6,11-dihydrodibenz[b,e]oxepine]	8.30
O=C(O)CCSC1c2ccc(Br)cc2COc2ccc(OCc3ccc4ccc(Cl)cc4n3)cc21 (stereo not drawn) [Example 14, 8-Bromo-11-(2-carboxyethylthio)-2-(7-chloroquinolin-2-yl)-methoxy-6,11-dihydrodibenz[b,e]oxepine]	8.50
N#Cc1cccc2c1COc1ccc(OCc3ccc4ccc(Cl)cc4n3)cc1C2SCCC(=O)O (stereo not drawn) [Example 15, 11-(2-Carboxyethylthio)-2-(7-Chloroquinolin-2-yl)methoxy-7-cyano-6,11-dihydrodibenz[b,e]oxepine]	9.20
O=C(O)CCSC1c2ccc(SCC(=O)O)cc2COc2ccc(OCc3ccc4ccc(Cl)cc4n3)cc21 (stereo not drawn) [Example 16, 11-(2-Carboxyethylthio)-8-carboxymethylthio-2-(7-chloroquinolin-2-yl)methoxy-6,11-dihydrodibenz[b,e]oxepine]	9.20
O=C(O)CCSC1c2ccc(-c3nn[nH]n3)cc2COc2ccc(OCc3ccc4ccccc4n3)cc21 (stereo not drawn) [Example 17, 11-(2-Carboxyethylthio)-2-(quinolin-2-yl)methoxy-8-(tetrazol-5-yl)-6,11-dihydrodibenz[b,e]oxepine]	8.80
O=C(O)CCSC1c2ccc(-c3nn[nH]n3)cc2COc2ccc(OCc3ccc4ccc(Cl)cc4n3)cc21 (stereo not drawn) [Example 18, 11-(2-Carboxyethylthio)-2-(7-chloroquinolin-2-yl)methoxy-8-(tetrazol-5-yl)-6,11-dihydrodibenz[b,e]oxepine]	9.70
O=C(O)CCSC1c2cc(OCc3ccc4ccc(Cl)cc4n3)ccc2OCc2c(-c3nn[nH]n3)cccc21 (stereo not drawn) [Example 19, 11-(2-Carboxyethylthio)-2-(7-chloroquinolin-2-yl)methoxy-7-(tetrazol-5-yl)-6,11-dihydrodibenz[b,e]oxepine]	9.30
NC(=O)c1cccc2c1COc1ccc(OCc3ccc4ccc(Cl)cc4n3)cc1C2SCCC(=O)O (stereo not drawn) [Example 20, 7-Carbamoyl-11-(2-carboxyethylthio)-2-(7-chloroquinolin-2-yl)methoxy-6,11-dihydrodibenz[b,e]oxepine]	9.20
O=C(O)CCCSC1c2ccccc2COc2ccc(OCc3ccc4ccc(Cl)cc4n3)cc21 (stereo not drawn) [Example 24, 11-(3-Carboxypropylthio)-2-(7-chloroquinolin-2-yl)methoxy-6,11-dihydrodibenz[b,e]oxepine]	8.60
Clc1ccc2ccc(COc3ccc4c(c3)C(SCCc3nn[nH]n3)c3ccccc3CO4)nc2c1 (stereo not drawn) [Example 30, 2-(7-Chloroquinolin-2-yl)methoxy-11-[2-(tetrazol-5-yl)ethylthio]-6,11-dihydrodibenz[b,e]oxepine]	8.70
CC(=O)CCc1ccc2c(c1)COc1ccc(OCc3ccc4cc(F)c(Cl)cc4n3)cc1C2SCCC(=O)O (stereo not drawn) [Example 48, 11-(2-Carboxyethylthio)-2-(7-chloro-6-fluoroquinolin-2-yl)methoxy-8-(2-acetylethyl)-6,11-dihydrodibenz[b,e]oxepine]	9.70
